Results as given in ChEMBL document CHEMBL1149136, “Design and syntheses of 1,6-naphthalene derivatives as selective HCMV protease inhibitors” (J Med Chem, 2004).

Tests used:
[1] = target: T1, Capsid scaffolding protein (Human cytomegalovirus (strain AD169) (HHV-5) (Human herpesvirus 5), UniProt P16753); test: Inhibitory concentration against HCMV protease.; assay type: functional, Human herpesvirus 5 strain AD169
T1 sequence (P16753 whole entry): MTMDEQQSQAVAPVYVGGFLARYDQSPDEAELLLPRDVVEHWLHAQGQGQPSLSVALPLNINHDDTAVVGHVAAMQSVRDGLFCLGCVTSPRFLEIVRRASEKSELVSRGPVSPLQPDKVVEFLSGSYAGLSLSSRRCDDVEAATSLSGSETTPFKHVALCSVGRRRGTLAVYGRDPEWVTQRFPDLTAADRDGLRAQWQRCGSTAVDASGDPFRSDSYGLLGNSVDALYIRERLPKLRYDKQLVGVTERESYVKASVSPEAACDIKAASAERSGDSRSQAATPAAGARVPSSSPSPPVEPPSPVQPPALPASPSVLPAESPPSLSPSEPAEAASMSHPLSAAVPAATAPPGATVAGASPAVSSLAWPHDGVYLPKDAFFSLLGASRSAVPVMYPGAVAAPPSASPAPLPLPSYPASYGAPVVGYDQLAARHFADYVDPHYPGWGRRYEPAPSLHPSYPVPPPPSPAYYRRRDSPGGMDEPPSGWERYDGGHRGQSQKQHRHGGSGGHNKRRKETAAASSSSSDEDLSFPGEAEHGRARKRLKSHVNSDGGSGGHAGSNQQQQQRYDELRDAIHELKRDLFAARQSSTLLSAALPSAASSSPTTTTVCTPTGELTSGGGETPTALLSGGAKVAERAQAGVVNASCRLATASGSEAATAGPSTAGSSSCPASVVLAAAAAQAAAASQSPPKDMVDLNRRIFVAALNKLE

[2] = target: Serine protease 1 (Homo sapiens) (UniProt P07477); test: Compound was tested for inhibition of trypsin
Chain of Serine protease 1 (Homo sapiens) (P07477 whole entry): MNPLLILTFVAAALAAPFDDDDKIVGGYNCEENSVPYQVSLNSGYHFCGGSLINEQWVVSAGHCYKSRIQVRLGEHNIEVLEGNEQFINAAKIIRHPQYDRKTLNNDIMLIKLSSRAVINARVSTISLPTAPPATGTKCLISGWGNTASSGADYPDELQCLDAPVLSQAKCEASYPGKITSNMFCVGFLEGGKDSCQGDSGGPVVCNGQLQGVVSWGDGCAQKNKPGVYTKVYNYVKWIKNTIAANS

[3] = Compound was tested for inhibition of chymotrypsinogen
[4] = Inhibitory concentration against elastase; assay type: functional

Row | Compound | IC50 [1] [µM] | Activity [2] [µM] | Activity [3] [µM] | IC50 [4] [µM]
1 | O=C(Nc1ccc2c(/C=C/c3ccc4ccc(Cl)cc4n3)cccc2c1)NS(=O)(=O)c1ccc(Cl)cc1 | 4.7 | – | – | –
2 | O=C(O)c1ccc(C(=O)Nc2ccc3c(OCc4cccc(C(F)(F)F)c4)cccc3c2)cc1 | 7.4 | > 80 | > 50 | –
3 | O=C(O)c1ccc(C(=O)Nc2ccc3c(COc4cccc(Cl)c4)cccc3c2)cc1 | 15.3 | – | – | –
4 | O=S(=O)(Nc1ccc2c(/C=C/c3ccc4cccc(Cl)c4n3)cccc2c1)C(F)(F)F | 3.2 | – | – | > 50
5 | O=S(=O)(Nc1ccc2c(/C=C/c3cc(Cl)c4ccccc4n3)cccc2c1)C(F)(F)F | 10.5 | – | – | > 50
6 | O=C(O)c1ccc(CNc2ccc3c(/C=C/c4ccc5ccc(Cl)cc5n4)cccc3c2)cc1 | 2.7 | – | – | –
7 | O=S(=O)(Nc1ccc2c(/C=C/c3ccccc3)cccc2c1)C(F)(F)F | 7.5 | – | – | > 50
8 | Nc1ccc2c(/C=C/c3ccc4ccc(Cl)cc4n3)cccc2c1 | > 50 | – | – | –
9 | O=C(O)c1ccc(CNc2ccc3c(COc4ccc(Br)cc4)cccc3c2)cc1 | 2.8 | > 80 | > 50 | –
10 | O=C(O)c1ccc(C(=O)Nc2ccc3c(/C=C/c4ccc5ccc(Cl)cc5n4)cccc3c2)cc1 | 17.4 | – | – | –
11 | O=C(O)c1ccc(C(=O)Nc2ccc3c(COc4ccc(Br)cc4)cccc3c2)cc1 | 21.3 | – | – | –
12 | COc1ccc2nc(/C=C/c3cccc4cc(NS(=O)(=O)C(F)(F)F)ccc34)ccc2c1 | 3.4 | – | – | > 50
13 | O=S(=O)(Nc1ccc2c(/C=C/c3ccc4ccccc4n3)cccc2c1)C(F)(F)F | 9.5 | – | – | > 50
14 | O=S(=O)(Nc1ccc2c(/C=C/c3ccc4cc(Cl)ccc4n3)cccc2c1)C(F)(F)F | 3.2 | – | – | > 50
15 | Cc1ccc2nc(/C=C/c3cccc4cc(NS(=O)(=O)C(F)(F)F)ccc34)ccc2c1 | 6.3 | – | – | > 50
16 | CC(=O)Nc1ccc2c(/C=C/c3ccc4cc(Cl)ccc4n3)cccc2c1 | 43 | – | – | –
17 | O=C(Nc1ccc2c(/C=C/c3ccc4ccc(Cl)cc4n3)cccc2c1)c1ccccc1 | > 50 | – | – | –
18 | O=C(Nc1ccc2c(/C=C/c3ccc4cc(Cl)ccc4n3)cccc2c1)Oc1ccccc1 | > 50 | – | – | –
19 | CN(C)c1ccc2nc(/C=C/c3cccc4cc(NS(=O)(=O)C(F)(F)F)ccc34)ccc2c1 | 3.7 | – | – | > 50

Row | Compound | IC50 [1] [µM] | Activity [2] [µM] | Activity [3] [µM] | IC50 [4] [µM]
20 | CN(c1ccc2c(/C=C/c3ccc4cc(Cl)ccc4n3)cccc2c1)S(=O)(=O)C(F)(F)F | > 50 | – | – | –
21 | Cc1ccc(S(=O)(=O)NC(=O)Nc2ccc3c(/C=C/c4ccc5ccc(Cl)cc5n4)cccc3c2)cc1 | 8.3 | – | – | –
22 | O=S(=O)(Nc1ccc2c(/C=C/c3cccc(C(F)(F)F)c3)cccc2c1)C(F)(F)F | 6.5 | – | – | > 50
23 | O=C(O)c1ccc(CNc2ccc3c(COc4ccccc4)cccc3c2)cc1 | 4.8 | > 80 | > 50 | –
24 | O=C(O)c1ccc(C(=O)Nc2ccc3c(OCc4cccc(Cl)c4)cccc3c2)cc1 | 5.1 | > 80 | > 50 | –
25 | O=S(=O)(Nc1ccc2c(/C=C/c3ccc4ccccc4c3)cccc2c1)C(F)(F)F | 15 | – | – | > 50
26 | CS(=O)(=O)Nc1ccc2c(/C=C/c3ccc4cc(Cl)ccc4n3)cccc2c1 | > 50 | – | – | –
27 | O=C(Nc1ccc2c(/C=C/c3ccc4ccc(Cl)cc4n3)cccc2c1)NS(=O)(=O)c1ccccc1 | 6.7 | – | – | –
28 | O=S(=O)(Nc1ccc2c(/C=C/c3ccc4ccc(Cl)cc4n3)cccc2c1)C(F)(F)F | 15.1 | – | – | > 50
29 | O=C(O)c1ccc(CNc2ccc3c(/C=C/c4cccc(C(F)(F)F)c4)cccc3c2)cc1 | 6.9 | – | – | –
30 | O=C(O)c1ccc(C(=O)Nc2ccc3c(OCc4cccc(Br)c4)cccc3c2)cc1 | 6.1 | > 80 | > 50 | –
31 | O=C(O)c1ccc(C(=O)Nc2ccc3c(COc4cccc(C(F)(F)F)c4)cccc3c2)cc1 | 15.2 | – | – | –
32 | O=S(=O)(Nc1ccc2c(/C=C/c3ccccn3)cccc2c1)C(F)(F)F | 66 | – | > 160 | > 50
33 | COc1cccc(/C=C/c2cccc3cc(NS(=O)(=O)C(F)(F)F)ccc23)c1 | 6.6 | – | – | > 50
34 | O=C(O)c1ccc2c(/C=C/c3ccc4ccccc4n3)cccc2c1 | > 50 | – | – | –
35 | O=C(O)c1ccc(C(=O)Nc2ccc3c(/C=C/c4cccc(C(F)(F)F)c4)cccc3c2)cc1 | 6.9 | – | – | –
36 | O=S(=O)(Nc1ccc2c(/C=C/c3ccc(Cl)cc3)cccc2c1)C(F)(F)F | 4.3 | – | – | > 50
37 | O=C(O)c1ccc(CNc2ccc3c(COc4cccc(Cl)c4)cccc3c2)cc1 | 3.1 | > 80 | > 50 | –
